Test results from patent US11180474B2 (BRISTOL-MYERS SQUIBB COMPANY, priority 2016, dated 2021).
Where a name gives a salt, the structure may show the parent alone.

Each compound was assayed against T1, human TLR8 (Homo sapiens, UniProt Q9NR97) (assay: TLR8 inhibition reporter assay (HEK-Blue cells, SEAP reporter, R848 stimulation)). Details: HEK-Blue cells overexpressing human TLR8, R848 15.9 μM.
T1 construct: host or cells: HEK-Blue cells
T1 sequence (Q9NR97 27-1041): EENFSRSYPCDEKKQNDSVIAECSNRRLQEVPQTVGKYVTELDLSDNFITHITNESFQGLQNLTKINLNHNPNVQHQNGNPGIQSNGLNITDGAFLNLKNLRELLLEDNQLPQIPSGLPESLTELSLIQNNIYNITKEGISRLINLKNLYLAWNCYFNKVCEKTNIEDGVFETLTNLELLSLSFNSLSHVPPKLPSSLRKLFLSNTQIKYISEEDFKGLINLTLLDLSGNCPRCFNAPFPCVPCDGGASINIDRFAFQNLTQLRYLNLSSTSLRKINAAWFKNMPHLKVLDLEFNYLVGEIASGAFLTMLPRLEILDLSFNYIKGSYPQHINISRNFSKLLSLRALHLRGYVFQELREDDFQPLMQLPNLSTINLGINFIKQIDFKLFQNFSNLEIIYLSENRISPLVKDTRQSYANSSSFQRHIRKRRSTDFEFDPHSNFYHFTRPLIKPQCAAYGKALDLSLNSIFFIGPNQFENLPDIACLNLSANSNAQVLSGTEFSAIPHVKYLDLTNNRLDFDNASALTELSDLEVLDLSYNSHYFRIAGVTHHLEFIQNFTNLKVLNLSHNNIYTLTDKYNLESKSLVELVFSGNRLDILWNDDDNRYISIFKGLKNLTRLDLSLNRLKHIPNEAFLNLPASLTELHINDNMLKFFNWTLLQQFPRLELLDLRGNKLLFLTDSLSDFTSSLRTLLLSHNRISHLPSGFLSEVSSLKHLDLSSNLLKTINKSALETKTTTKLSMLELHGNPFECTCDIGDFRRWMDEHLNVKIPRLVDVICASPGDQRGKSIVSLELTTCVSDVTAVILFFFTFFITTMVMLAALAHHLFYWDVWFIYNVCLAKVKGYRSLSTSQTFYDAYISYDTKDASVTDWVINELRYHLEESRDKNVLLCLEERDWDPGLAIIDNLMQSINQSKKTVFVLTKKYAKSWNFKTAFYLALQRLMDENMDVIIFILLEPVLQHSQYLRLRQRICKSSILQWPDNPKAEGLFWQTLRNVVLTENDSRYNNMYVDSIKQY
Format: cell-based
Method in brief: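 HEK-Blue reporter cells (15,000/well TLR7, 20,000 TLR8) exposed to compound over 0.05 nM–50 μM, agonist-stimulated (R848 for TLR8, gardiquimod for TLR7), 22 h at 37 °C, 5% CO2. SEAP read with HEK-Blue Detection; % inhibition relative to agonist-plus-DMSO and known-inhibitor controls.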

Compound | IC50 [nM]
COc1ccc(-c2[nH]c3ccc(C4CCN(CC(=O)N(C)C5CCN(C)C5)CC4)cc3c2CC(F)(F)F)cc1OC (stereo not shown) [Example 370, 2-(4-(2-(3,4-dimethoxyphenyl)-3-(2,2,2-trifluoroethyl)-1H-indol-5-yl)piperidin-1-yl)-N-methyl-N-(1-methylpyrrolidin-3-yl)acetamide] | 55
COc1ccc(-c2[nH]c3ccc(C4CCN(CC(=O)N5CCC[C@@H]5CO)CC4)cc3c2CC(F)(F)F)cc1OC [Example 371, (R)-2-(4-(2-(3,4-dimethoxyphenyl)-3-(2,2,2-trifluoroethyl)-1H-indol-5-yl)piperidin-1-yl)-1-(2-(hydroxymethyl)pyrrolidin-1-yl)ethan-1-one] | 52
CCN(CCN(C)C)C(=O)CN1CCC(c2ccc3[nH]c(-c4ccc(OC)c(OC)c4)c(CC(F)(F)F)c3c2)CC1 [Example 372, 2-(4-(2-(3,4-dimethoxyphenyl)-3-(2,2,2-trifluoroethyl)-1H-indol-5-yl)piperidin-1-yl)-N-(2-(dimethylamino)ethyl)-N-ethylacetamide] | 25
COc1ccc(-c2[nH]c3ccc(C4CCN(CC(=O)N5CC[C@@H](N(C)C)C5)CC4)cc3c2CC(F)(F)F)cc1OC [Example 373, (R)-2-(4-(2-(3,4-dimethoxyphenyl)-3-(2,2,2-trifluoroethyl)-1H-indol-5-yl)piperidin-1-yl)-1-(3-(dimethylamino)pyrrolidin-1-yl)ethan-1-one] | 44
COc1ccc(-c2[nH]c3ccc(C4CCN(CC(=O)N5CC[C@H](N(C)C)C5)CC4)cc3c2CC(F)(F)F)cc1OC [Example 374, (S)-2-(4-(2-(3,4-dimethoxyphenyl)-3-(2,2,2-trifluoroethyl)-1H-indol-5-yl)piperidin-1-yl)-1-(3-(dimethylamino)pyrrolidin-1-yl) ethan-1-one] | 35
COc1ccc(-c2[nH]c3ccc(C4CCN(CC(=O)NCCN5CCCC5)CC4)cc3c2CC(F)(F)F)cc1OC [Example 375, 2-(4-(2-(3,4-dimethoxyphenyl)-3-(2,2,2-trifluoroethyl)-1H-indol-5-yl)piperidin-1-yl)-N-(2-(pyrrolidin-1-yl)ethyl)acetamide] | 117
COc1ccc(-c2[nH]c3ccc(C4CCN(CC(=O)NCCCN5CCCC5=O)CC4)cc3c2CC(F)(F)F)cc1OC [Example 376, 2-(4-(2-(3,4-dimethoxyphenyl)-3-(2,2,2-trifluoroethyl)-1H-indol-5-yl)piperidin-1-yl)-N-(3-(2-oxopyrrolidin-1-yl)propyl)acetamide] | 65
CCC(C)NC(=O)CN1CCC(c2ccc3[nH]c(-c4ccc(OC)c(OC)c4)c(CC(F)(F)F)c3c2)CC1 (stereo not shown) [Example 377, N-(sec-butyl)-2-(4-(2-(3,4-dimethoxyphenyl)-3-(2,2,2-trifluoroethyl)-1H-indol-5-yl)piperidin-1-yl)acetamide] | 204
CCC(CC)NC(=O)CN1CCC(c2ccc3[nH]c(-c4ccc(OC)c(OC)c4)c(CC(F)(F)F)c3c2)CC1 [Example 378, 2-(4-(2-(3,4-dimethoxyphenyl)-3-(2,2,2-trifluoroethyl)-1H-indol-5-yl)piperidin-1-yl)-N-(pentan-3-yl)acetamide] | 451
COc1ccc(-c2[nH]c3ccc(C4CCN(CC(=O)NCCNC(C)=O)CC4)cc3c2CC(F)(F)F)cc1OC [Example 379, N-(2-acetamidoethyl)-2-(4-(2-(3,4-dimethoxyphenyl)-3-(2,2,2-trifluoroethyl)-1H-indol-5-yl)piperidin-1-yl)acetamide] | 39
COc1ccc(-c2[nH]c3ccc(C4CCN(CC(=O)NCCN(C)C)CC4)cc3c2CC(F)(F)F)cc1OC [Example 380, 2-(4-(2-(3,4-dimethoxyphenyl)-3-(2,2,2-trifluoroethyl)-1H-indol-5-yl)piperidin-1-yl)-N-(2-(dimethylamino)ethyl)acetamide] | 55
COc1ccc(-c2[nH]c3ccc(C4CCN(CC(=O)NCC#N)CC4)cc3c2CC(F)(F)F)cc1OC [Example 381, N-(cyanomethyl)-2-(4-(2-(3,4-dimethoxyphenyl)-3-(2,2,2-trifluoroethyl)-1H-indol-5-yl)piperidin-1-yl)acetamide] | 76
COc1ccc(-c2[nH]c3ccc(C4CCN(CC(=O)NCCCN(C)C)CC4)cc3c2CC(F)(F)F)cc1OC [Example 382, 2-(4-(2-(3,4-dimethoxyphenyl)-3-(2,2,2-trifluoroethyl)-1H-indol-5-yl)piperidin-1-yl)-N-(3-(dimethylamino)propyl)acetamide] | 62
COc1ccc(-c2[nH]c3ccc(C4CCN(CC(=O)NCCCn5ccnc5)CC4)cc3c2CC(F)(F)F)cc1OC [Example 383, N-(3-(1H-imidazol-1-yl)propyl)-2-(4-(2-(3,4-dimethoxyphenyl)-3-(2,2,2-trifluoroethyl)-1H-indol-5-yl)piperidin-1-yl)acetamide] | 30
COc1ccc(-c2[nH]c3ccc(C4CCN(CC(=O)NCCc5ccc(S(N)(=O)=O)cc5)CC4)cc3c2CC(F)(F)F)cc1OC [Example 384, 2-(4-(2-(3,4-dimethoxyphenyl)-3-(2,2,2-trifluoroethyl)-1H-indol-5-yl)piperidin-1-yl)-N-(4-sulfamoylphenethyl)acetamide] | 81
COc1ccc(-c2[nH]c3ccc(C4CCN(CC(=O)NCC(N)=O)CC4)cc3c2CC(F)(F)F)cc1OC [Example 385, N-(2-amino-2-oxoethyl)-2-(4-(2-(3,4-dimethoxyphenyl)-3-(2,2,2-trifluoroethyl)-1H-indol-5-yl)piperidin-1-yl)acetamide] | 41
COc1ccc(-c2[nH]c3ccc(C4CCN(CC(=O)NCCS(=O)(=O)O)CC4)cc3c2CC(F)(F)F)cc1OC [Example 386, 2-(2-(4-(2-(3,4-dimethoxyphenyl)-3-(2,2,2-trifluoroethyl)-1H-indol-5-yl)piperidin-1-yl)acetamido)ethane-1-sulfonic acid] | 590

Next, values leading:

IC50 [nM] | Compound
587 | COc1ccc(-c2[nH]c3ccc(C4CCN(CC(=O)Nc5cc(C(C)(C)C)[nH]n5)CC4)cc3c2CC(F)(F)F)cc1OC [Example 387, N-(5-(tert-butyl)-1H-pyrazol-3-yl)-2-(4-(2-(3,4-dimethoxyphenyl)-3-(2,2,2-trifluoroethyl)-1H-indol-5-yl)piperidin-1-yl)acetamide]
40 | COc1ccc(-c2[nH]c3ccc(C4CCN(CC(=O)NCCCCN5CCCC5)CC4)cc3c2CC(F)(F)F)cc1OC [Example 388, 2-(4-(2-(3,4-dimethoxyphenyl)-3-(2,2,2-trifluoroethyl)-1H-indol-5-yl)piperidin-1-yl)-N-(4-(pyrrolidin-1-yl)butyl)acetamide]
356 | CCN(CC)C(=O)C1CCCN(CC(=O)N2CCC(c3ccc4[nH]c(-c5ccc(OC)c(OC)c5)c(C5CCOCC5)c4c3)CC2)C1 (stereo not shown) [Example 391, 1-(2-(4-(2-(3,4-dimethoxyphenyl)-3-(tetrahydro-2H-pyran-4-yl)-1H-indol-5-yl)piperidin-1-yl)-2-oxoethyl)-N,N-diethylpiperidine-3-carboxamide]
196 | CCN(CC)C(=O)C1CCCN(CC(=O)N2CCC(c3ccc4[nH]c(-c5ccc(OC)c(OC)c5)c(C5CCOCC5)c4c3)CC2)C1 (stereo not shown) [Example 392, 1-(2-(4-(2-(3,4-dimethoxyphenyl)-3-(tetrahydro-2H-pyran-4-yl)-1H-indol-5-yl)piperidin-1-yl)-2-oxoethyl)-N,N-diethylpiperidine-3-carboxamide]
660 | COc1ccc(-c2[nH]c3ccc(C4CCN(C(=O)CN[C@H](C)C(C)C)CC4)cc3c2C2CCOCC2)cc1OC [Example 394, (R)-1-(4-(2-(3,4-dimethoxyphenyl)-3-(tetrahydro-2H-pyran-4-yl)-1H-indol-5-yl)piperidin-1-yl)-2-((3-methylbutan-2-yl)amino)ethan-1-one]
438 | COc1ccc(-c2[nH]c3ccc(C4CCN(C(=O)CN(C)C)CC4)cc3c2C(O)C(F)(F)F)cc1OC (stereo not shown) [Example 395, 1-(4-(2-(3,4-dimethoxyphenyl)-3-(2,2,2-trifluoro-1-hydroxyethyl)-1H-indol-5-yl)piperidin-1-yl)-2-(dimethylamino)ethan-1-one]
295 | CCc1c(-c2ccc(OC)c(OC)c2)[nH]c2cc(C)c(C3CCNCC3)cc12 [Example 396, 2-(3,4-dimethoxyphenyl)-3-ethyl-6-methyl-5-(piperidin-4-yl)-1H-indole, HCl]
82 | COc1ccc(-c2[nH]c3ccc(C4CCN(C(=O)CN(C)C)CC4)cc3c2CC(F)F)cc1OC [Example 399, 1-(4-(3-(2,2-difluoroethyl)-2-(3,4-dimethoxyphenyl)-1H-indol-5-yl)piperidin-1-yl)-2-(dimethylamino)ethan-1-one]
